Measurements from PMC7397269, “Synthesis and Evaluation of New Coumarin Derivatives as Antioxidant, Antimicrobial, and Anti-Inflammatory Agents” (Molecules, 2020).
In brackets after ≈: the same amount, converted by molar mass. Read-outs that look alike come from different tables or passages of the source.

Tests used:
[1] = system: Candida albicans NRRL Y-477; test: MIC, two-fold serial dilution, C. albicans; assay type: cell-based; settings: NRRLY477, read-out: Minimum inhibitory concentration, CA
Text: (§1) The new molecules were individually tested for their antimicrobial activity in vitro against standard bacteria strains from the American Type Culture Collection (ATCC), namely, Staphylococcus aureus ATCC 29213, Bacillus subtilis ATCC 6633, Bacillus megaterium ATCC 9885 (Gram-positive), Escherichia coli ATCC 2592, and Pseudomonas aeruginosa ATCC 27,953 (Gram-negative). The compounds were also microbiologically tested against locally isolated Saccharomyces cerevisiae (yeast) and the standard Agricultural Research Service Culture Collection (NRRL) strain of the yeast-like pathogenic fungus Candida albicans NRRL Y-477. Primary screening was conducted using the agar well diffusion method using nutrient agar (NA) medium and Sabourand dextrose agar (SDA) medium for the tested pathological bacteria and yeast, respectively. […].
(§2) The bacteriostatic activity of the active compounds (having IZ > 16 mm) was then evaluated using the two-fold serial dilution technique. Two-fold serial dilutions of the tested compounds solutions were prepared using the proper nutrient broth to reach final concentrations of 1000, 500, 250, and 125 μg/mL. The tubes were then inoculated with the test microorganisms grown in their suitable broth at 37 °C for 24 h (1 × 10^8 CFU/mL for bacteria and 1 × 10^6 CFU/mL of yeast), 0.1 mL of the above inoculum was administered per 5 mL, and the tubes were incubated at 37 °C for 24 h. The lowest concentration showing no growth was taken as the MIC.

COX-1 = target: T1, COX-1 (Homo sapiens, UniProt P23219); test: COX-1 inhibition, Cayman assay kit; assay type: biochemical; settings: mean of two determinations
T1 construct: purchased Cayman Chemical 701070
T1 sequence (P23219 24-599): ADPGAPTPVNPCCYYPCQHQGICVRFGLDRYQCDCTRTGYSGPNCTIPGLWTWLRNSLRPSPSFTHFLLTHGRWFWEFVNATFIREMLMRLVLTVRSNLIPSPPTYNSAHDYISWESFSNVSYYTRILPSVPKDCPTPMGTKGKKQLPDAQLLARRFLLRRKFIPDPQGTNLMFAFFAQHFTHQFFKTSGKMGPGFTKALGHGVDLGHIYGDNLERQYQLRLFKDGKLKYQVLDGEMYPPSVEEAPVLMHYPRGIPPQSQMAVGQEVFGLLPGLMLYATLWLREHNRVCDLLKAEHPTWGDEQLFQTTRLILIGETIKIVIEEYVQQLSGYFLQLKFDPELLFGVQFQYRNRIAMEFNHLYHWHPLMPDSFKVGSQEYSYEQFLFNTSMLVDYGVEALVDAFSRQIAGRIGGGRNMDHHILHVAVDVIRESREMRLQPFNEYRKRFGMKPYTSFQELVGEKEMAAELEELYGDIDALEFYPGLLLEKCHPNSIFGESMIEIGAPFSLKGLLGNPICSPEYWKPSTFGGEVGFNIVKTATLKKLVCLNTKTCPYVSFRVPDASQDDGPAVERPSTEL

COX-2 = target: T2, COX-2 (Homo sapiens, UniProt P35354); test: COX-2 inhibition, Cayman assay kit; assay type: biochemical; settings: for IC50: mean of two determinations; for SI, selectivity index (COX-1/COX-2): ratio of COX-1/COX-2 IC50
T2 construct: purchased Cayman Chemical 701080
T2 sequence (P35354 18-604): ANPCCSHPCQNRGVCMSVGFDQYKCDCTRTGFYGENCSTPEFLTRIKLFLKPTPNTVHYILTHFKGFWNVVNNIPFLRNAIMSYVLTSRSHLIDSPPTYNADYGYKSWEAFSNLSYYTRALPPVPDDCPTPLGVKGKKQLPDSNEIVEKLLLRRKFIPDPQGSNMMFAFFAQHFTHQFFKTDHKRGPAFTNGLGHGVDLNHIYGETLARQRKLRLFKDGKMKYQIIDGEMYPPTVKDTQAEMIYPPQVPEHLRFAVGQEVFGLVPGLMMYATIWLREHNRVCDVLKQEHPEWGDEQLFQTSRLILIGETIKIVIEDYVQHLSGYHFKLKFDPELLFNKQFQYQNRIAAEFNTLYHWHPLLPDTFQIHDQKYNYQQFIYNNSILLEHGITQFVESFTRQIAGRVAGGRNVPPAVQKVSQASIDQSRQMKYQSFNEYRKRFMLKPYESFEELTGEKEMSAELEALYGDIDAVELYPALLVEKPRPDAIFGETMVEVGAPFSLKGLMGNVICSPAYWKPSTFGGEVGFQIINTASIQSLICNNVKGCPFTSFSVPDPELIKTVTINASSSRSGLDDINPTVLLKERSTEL

[2] = system: Bacillus subtilis ATCC 6633; test: Agar well diffusion, B. subtilis; assay type: cell-based; settings: ATCC6633, 100 μL of 10 mg/mL in DMSO, read-out: diameter of inhibition zone, BS
Text: as §1
(§3) Antimicrobial tests were conducted via the agar well diffusion method using 100 μL of suspension containing 1 × 10^8 CFU/mL pathological tested bacteria and 1 × 10^6 CFU/mL yeast spread on NA and SDA, respectively. After the media cooled and solidified, wells (10 mm in diameter) were made in the solidified agar and loaded with 100 μL of the tested compound solution prepared by dissolving 10 mg of the chemical compound in 1 mL dimethyl sulfoxide (DMSO). The inoculated plates were then incubated for 24 h at 37 °C for bacteria and yeast growth. DMSO served as negative control. Ciprofloxacin (10 mg/mL) and ketoconazole (10 mg/mL) were used as standards for antibacterial and antifungal activity, respectively. After incubation, antimicrobial activity was evaluated by measuring the zone of inhibition against the test organisms and compared with that of the standard. Antimicrobial activities were expressed as the diameter of the inhibition zone (IZ) in mm. The experiment was carried out in triplicate and the average zone of inhibition was calculated.

[3] = system: Escherichia coli ATCC 2592; test: Agar well diffusion, E. coli; assay type: cell-based; settings: ATCC2592, 100 μL of 10 mg/mL in DMSO, read-out: diameter of inhibition zone, EC
Text: as §1, §3

trypsin = test: Proteinase-inhibitory activity; assay type: biochemical; settings: 250 µg/mL; mean ± SD (n = 3)
Description: The newly synthesised compounds were individually tested for their in vitro anti-inflammatory activity against proteinase enzyme. […] This test was performed at the Pharmacology Department, Medical Research Division, National Research Centre, Cairo, Egypt. Furthermore, compounds 2–8 were evaluated for their COX1/COX2 inhibitory activities.
The test was performed according to El-Serwy et al. with minor modifications. The reaction mixture (2 mL) contained 0.06 mg trypsin, 20 mM Tris HCl buffer (pH 7.4), and 1 mL test sample (250 µg/mL for each compound). After incubating for 5 min, 1 mL of 0.8% (w/v) casein was added. The mixture was incubated for an additional 20 min. The reaction was arrested by adding 1 mL of 10% perchloric acid. The cloudy suspension was centrifuged, and the absorbance of the supernatant was read at 280 nm. Reference standard aspirin was used as the positive control. The experiment was performed in triplicate. The percent inhibition of protein denaturation was calculated using the following Equation (2):(2) % Inhibition=100−A control −A test/A control×100 where Acontrol and Atest represent the absorbance of the control reaction without and with the sample, respectively.

[4] = system: Candida albicans NRRL Y-477; test: Agar well diffusion, C. albicans; assay type: cell-based; settings: NRRLY477, 100 μL of 10 mg/mL in DMSO, read-out: diameter of inhibition zone, CA
Text: as §1, §3

[5] = system: Pseudomonas aeruginosa ATCC 27,953; test: Agar well diffusion, P. aeruginosa; assay type: cell-based; settings: ATCC27, 100 μL of 10 mg/mL in DMSO, read-out: diameter of inhibition zone, PA
Text: as §1, §3

[6] = system: Staphylococcus aureus ATCC 29213; test: Agar well diffusion, S. aureus; assay type: cell-based; settings: ATCC29213, 100 μL of 10 mg/mL in DMSO, read-out: diameter of inhibition zone, SA
Text: as §1, §3

[7] = system: Saccharomyces cerevisiae local isolate; test: MIC, two-fold serial dilution, S. cerevisiae; assay type: cell-based; settings: read-out: Minimum inhibitory concentration, SC
Text: as §1, §2

[8] = system: Bacillus megaterium ATCC 9885; test: Agar well diffusion, B. megaterium; assay type: cell-based; settings: Priestia megaterium, ATCC9885, 100 μL of 10 mg/mL in DMSO, read-out: diameter of inhibition zone, BM
Text: as §1, §3

[9] = system: Saccharomyces cerevisiae local isolate; test: Agar well diffusion, S. cerevisiae; assay type: cell-based; settings: read-out: diameter of inhibition zone, SC
Text: as §1, §3

[10] = DPPH antioxidant assay (radical scavenging); assay type: biochemical; settings: mean ± SD (n = 3)
Description: The antioxidant effects of the synthesised compounds were assessed using the 2,2-diphenyl-1-picrylhydrazyl (DPPH) antioxidant assay. Table 1 summarises the antioxidant effects of the test samples and ascorbic acid except for compound 5b because it was produced in poor yield.
The radical scavenging activity of the synthesised compounds was measured using the DPPH microplate-based method. The absorbance was measured using a microplate/cuvette reader (Spectramax M5, Molecular Devices, San Jose, CA, USA). Reference standard ascorbic acid was utilised as the positive control for this assay. Test samples were prepared at a starting concentration of 200 μg/mL after mixing with 100 μL of 0.2 mM DPPH methanolic solution. […] Samples were incubated with DPPH in the dark for 30 min at room temperature (25 °C). The methanolic DPPH solution was prepared daily and stored in a flask covered with aluminium foil. DPPH radicals have an absorption maximum (λmax) at 515 nm, at which the absorbance values were measured and converted into a percentage of antioxidant activity.
The methanolic DPPH solution without antioxidants was used as a control, and samples in methanol alone served as a background control. IC50 was determined using GraphPad Prism 7 (GraphPad Software Inc., San Diego, CA, USA). The percent inhibition was calculated using the following Equation (1):(1) % Inhibition=100−Sample Absorbance −Sample background Absorbance/DPPH only Absorbance×100
The assay was carried out in triplicate and performed as much as possible in an area protected against light. The data points are presented as the mean ± standard deviation (SD, n = 3).

[11] = system: Staphylococcus aureus ATCC 29213; test: MIC, two-fold serial dilution, S. aureus; assay type: cell-based; settings: ATCC29213, read-out: Minimum inhibitory concentration, SA
Text: as §1, §2

[12] = system: Bacillus subtilis ATCC 6633; test: MIC, two-fold serial dilution, B. subtilis; assay type: cell-based; settings: ATCC6633, read-out: Minimum inhibitory concentration, BS
Text: as §1, §2

[13] = system: Bacillus megaterium ATCC 9885; test: MIC, two-fold serial dilution, B. megaterium; assay type: cell-based; settings: Priestia megaterium, ATCC9885, read-out: Minimum inhibitory concentration, BM
Text: as §1, §2

[14] = system: Escherichia coli ATCC 2592; test: MIC, two-fold serial dilution, E. coli; assay type: cell-based; settings: ATCC2592, read-out: Minimum inhibitory concentration, EC
Text: as §1, §2

[15] = system: Pseudomonas aeruginosa ATCC 27,953; test: MIC, two-fold serial dilution, P. aeruginosa; assay type: cell-based; settings: ATCC27, read-out: Minimum inhibitory concentration, PA
Text: as §1, §2

[16] = well diffusion, 100 μL of 10 mg/mL in DMSO, S. cerevisiae

MIC [12] [µg/mL]	MIC [13] [µg/mL]	SMILES	MIC [1] [µg/mL]	IC50 (COX-1) [µM]	melting point [°C]	IC50 (COX-2) [µM]	SI, selectivity index (COX-1/COX-2) (COX-2)	zone of inhibition at 10000 µg/mL [2] [mm]	zone of inhibition at 10000 µg/mL [3] [mm]	% Inhibition (proteinase) (trypsin) [%]	zone of inhibition at 10000 µg/mL [4] [mm]	zone of inhibition at 10000 µg/mL [5] [mm]	zone of inhibition at 10000 µg/mL [6] [mm]	MIC [7] [µg/mL]	zone of inhibition at 10000 µg/mL [8] [mm]	zone of inhibition at 10000 µg/mL [9] [mm]	IC50 [10]	MIC [11] [µg/mL]	zone of inhibition at 10000 µg/mL [9, 16] [mm]	further results
–	–	Cc1ccc2oc(=O)c3c(c2c1)OC(N)=C(C(N)=O)C3c1ccco1 (racemic) [3b, (±)-2-Amino-4-(furan-2-yl)-9-methyl-5-oxo-4H,5H-pyrano[3,2-c]chromene-3-carboxamide]	1000 (≈ 2960 µM)	7.73	202 to 204	2.45	3.16	< 15	16	49.28 ± 10.93	18	16	16	1000 (≈ 2960 µM)	< 15	17	48.38 ± 4.616 µg/mL (≈ 143 µM)	–	–	–
–	–	COc1cc(/C=N/C2=C(C#N)C(c3ccco3)c3c(c4cc(C)ccc4oc3=O)O2)cc(OC)c1OC (racemic) [5d, (±)-4-(furan-2-yl)-9-methyl-5-oxo-2-((3,4,5-trimethoxybenzylidene)amino)-4H,5H-pyrano[3,2-c]chromene-3-carbonitrile]	1000 (≈ 2010 µM)	27.2	248 to 250	16	1.7	< 15	< 15	43.4 ± 1.52	19	< 15	18	1000 (≈ 2010 µM)	< 15	19	82.92 ± 3.300 µg/mL (≈ 166 µM)	1000 (≈ 2010 µM)	–	–
–	–	Cc1ccc2oc(=O)c3c(c2c1)OC(/N=C/c1ccc(Cl)cc1Cl)=C(C#N)C3c1ccc([N+](=O)[O-])cc1 (racemic) [5e, (±)-2-((2,4-dichlorobenzylidene)amino)-9-methyl-4-(4-nitrophenyl)-5-oxo-4H,5H-pyrano[3,2-c]chromene-3-carbonitrile]	500 (≈ 939 µM)	20.8	236 to 238	8.27	2.52	16	15	45.78 ± 1.62	20	15	16	500 (≈ 939 µM)	16	22	— ((—): inactive (IC50 > 200 μg/mL))	–	–	–
1000 (≈ 1900 µM)	1000 (≈ 1900 µM)	O=C(/C=C/c1ccc([N+](=O)[O-])cc1)c1ccc(NS(=O)(=O)c2c(O)c3cc(Cl)ccc3oc2=O)cc1 [9a, (E)-6-Chloro-4-hydroxy-N-(4-(3-(4-nitrophenyl)acryloyl)phenyl)-2-oxo-2H-chromene-3-sulfonamide]	–	–	205 to 207	–	–	18	< 15	62.14 ± 4.87	< 15	< 15	16	–	18	–	— ((—): inactive (IC50 > 200 μg/mL))	–	< 15	–
125 (≈ 377 µM)	125 (≈ 377 µM)	O=C(O)c1cn(C2CC2)c2cc(N3CCNCC3)c(F)cc2c1=O [Ciprofloxacin, reference compound]	–	–	–	–	–	30	30	–	< 15	30	28	–	30	–	–	125 (≈ 377 µM)	< 15	MIC [14]: 125 µg/mL (≈ 377 µM); MIC [15]: 125 µg/mL (≈ 377 µM)
